Columns and labels:
[1] = in vitro; conditions: human, blood, pH 7.5
Description: (§1) Each of the reaction mixtures was prepared by dissolving 1 mg of the ester in 10 μl of ethanol, and by mixing with it, 90 μl of a 0.1M phosphoric acid buffer (having a pH of 7.5), plus one of the following: 100 μl of a cell suspension, or 20 or 30 μl of whole blood, or 50 μl of tissue homogenate. […] The cells numbers in 100 μl of the cell suspension used in the reaction were as follows: rat liver cancer cells Anr4=7×10^6 ; rat pancreas cancer cells ARIP=8×10^6 ; rat sarcoma cells XC=5×10^6 ; human histiocytic leukemia cells U937=1×10^7 ; human pancreas cancer cells MIA PaCa-2=8×10^6 ; and human intestinum crassum cancer cells Colo 320=1×10^7. Fifty μl of the tissue homogenate corresponded to 20 mg of wet tissue.
(§2) Each of these reaction mixtures was stirred for 12 hours at 30° C. by a magnetic stirrer; then 1.5 μl of 2N HCl was added, to bring the pH to about 2.5, and extraction with 1 ml of ethyl acetate in the presence of a saturated sodium chloride was carried out twice. The ethyl acetate layers of each sample were combined, the volume was adjusted to precisely 2 ml, and it was divided into 1.7 ml and 0.3 ml. The former was concentrated under reduced pressure, and the contained produced carboxylic acid was isolated by thin-layer preparative chromatography. A solution of diazomethane in ether was added to it, to methylate it, and the absolute configuration and the optical purity of the methylated product were determined by high-performance liquid chromatography using a chiral column. The latter 0.3 ml was directly methylated, and then it was concentrated and adjusted to 0.3 ml again, and the methyl ester of the contained produced carboxylic acid was determined quantitatively by gas chromatography, from which the hydrolyzed rate was determined. The column used in the high-performance liquid chromatography was a Chiralcell OJ or OD column (trade name; 4.6×250 mm) manufactured by Daicel; the elution was carried out by using a 10% 2-propanol/hexane mixture; and the flow velocity was 1 or 0.75 ml/min. The column used in the gas chromatography was a capillary column of OV-1 (0.25 mm×25 m), and the analysis temperature was 120° to 180° C.

[2] = Stereoselective hydrolysis of anticancer agent esters with human whole blood; conditions: pH 7.5; for enantiomer excess of the carboxylic acid produced by the hydrolysis: human whole blood, 12 hours at 30° C.
Description: as §1, §2

[3] = in vitro; conditions: human, colo 320 cells, pH 7.5
Description: as §1, §2

[4] = Stereoselective hydrolysis of anticancer agent esters with rat whole blood; conditions: pH 7.5; for enantiomer excess of the carboxylic acid produced by the hydrolysis: rat whole blood, 12 hours at 30° C.; for metabolised at 12 h: rat, whole blood
Description: as §1, §2

[5] = system: rat pancreas cancer cells ARIP; assay: Stereoselective hydrolysis of anticancer agent esters with rat pancreas cancer cells ARIP; conditions: ARIP; 12 hours at 30° C., pH 7.5
Description: as §1, §2

[6] = system: rat liver cancer cells Anr4; assay: Stereoselective hydrolysis of anticancer agent esters with rat liver cancer cells Anr4; conditions: Anr4; 12 hours at 30° C., pH 7.5
Description: as §1, §2

[7] = Stereoselective hydrolysis of anticancer agent esters with normal rat liver homogenate; conditions: 12 hours at 30° C., pH 7.5
[8] = system: human pancreas cancer cells MIA PaCa-2; assay: Stereoselective hydrolysis of anticancer agent esters with human pancreas cancer cells MIA PaCa-2; conditions: MIA PaCa-2; 12 hours at 30° C., pH 7.5
Description: as §1, §2

[9] = in vitro; conditions: human, mia paca-2 cells, pH 7.5
Description: as §1, §2

[10] = Stereoselective hydrolysis of anticancer agent esters with normal rat pancreas homogenate; conditions: 12 hours at 30° C., pH 7.5
Description: as §1, §2

[11] = system: rat sarcoma cells XC; assay: Stereoselective hydrolysis of anticancer agent esters with rat sarcoma cells XC; conditions: XC; 12 hours at 30° C., pH 7.5
Description: as §1, §2

[12] = in vitro; conditions: rat, blood, pH 7.5
Description: as §1, §2

[13] = Stereoselective hydrolysis of anticancer agent esters with normal rat muscle homogenate; conditions: 12 hours at 30° C., pH 7.5
[14] = in vitro; conditions: human, u937 cells, pH 7.5
Description: as §1, §2

[15] = in vitro; conditions: rat, xc cells, pH 7.5
Description: as §1, §2

[16] = in vitro; conditions: rat, arip cells, pH 7.5
Description: as §1, §2

[17] = system: human intestinum crassum cancer cells Colo 320; assay: Stereoselective hydrolysis of anticancer agent esters with human intestinum crassum cancer cells Colo 320; conditions: Colo320; 12 hours at 30° C., pH 7.5
Description: as §1, §2

[18] = system: human histiocytic leukemia cells U937; assay: Stereoselective hydrolysis of anticancer agent esters with human histiocytic leukemia cells U937; conditions: U937; 12 hours at 30° C., pH 7.5
Description: as §1, §2

[19] = in vitro; conditions: rat, anr4 cells, pH 7.5
Description: as §1, §2

[20] = system: rat liver cancer cells Anr4; assay: Anticancer effect (suppression of multiplication) on rat liver cancer cells Anr4; type: cell-based; conditions: for multiplication of Anr4 cells suppressed to % of the control: same way as in Example 2 (Example 3); for multiplication of Anr4 cells suppressed to % of the control / number of cells, % for the value of the control: 2880 min; for suppression of multiplication of Anr4 cells, comparison of enantiomers: Ib: at 1 μM to 0.1 μM, Ic: at 10 μM; for number of cells, % for the value of the control: 6 hours exposure, then 42 hours in fresh medium
Description: The anticancer effect of levo-rotatory or dextro-rotatory 4-bis(2-chloroethyl)aminophenyl 2-methoxy-2-phenylacetate (Ib) on rat liver cancer cells Anr4 was tested. Anr4 cells were suspended, in an amount of cells number of 1×10^6 per 1 ml, in William's E medium containing 10% of fetal bovine serum, and 0.1 ml of the suspension was distributed to each well of a 24-well multiplate. Further, 1.385 ml of the above medium was added to each well. They were cultured for 4 hours at 37° C. in a CO2 incubator, and then 15 μl of pure ethanol or an ethanol solution containing (R)-(-)-Ib or (S)-(+)-Ib obtained in Synthetic. Example 4, having a concentration of 10 mM, 1 mM, 0.1 mM, 0.01 mM, or 0.001 mM, was added to the medium in each well, and they were mixed well.
After they were cultured for 6 hours in the above incubator, the medium was removed by suction, and 1.5 ml of fresh medium was added. After culturing was continued for 42 hours, the number of cells in each well was counted by a Coulter counter. The results, in terms of % for the value of the control (the well added pure ethanol), were 9%, 12%, 16%, 55%, and 95% for the concentrations of 100 μM, 10 μM, 1 μM, 0.1 μM, and 0.01 μM of (R)-(-)-Ib in the medium, respectively. For the concentrations of 100 μM, 10 μM, 1 μM, 0.1 μM, and 0.01 μM of (S)-(+)-Ib in the medium, the results were 9%, 18%, 30%, 83%, and 95%, respectively.
The anticancer effect of the optically active substances of Ic obtained in Synthetic Example 5 on Anr4 cells was tested in the same way as in Example 2. As a result, at 10 μM, (R)-(+)-Ic suppressed the multiplication of Anr4 cells to 14% of the control, and (S)-(-)-Ic suppressed the multiplication of Anr4 cells to 25% of the control.

[21] = Stereoselective hydrolysis of anticancer agent esters with rat pancreas cancer cells ARIP; conditions: rat, arip cells, pH 7.5
Description: as §1, §2

[22] = Stereoselective hydrolysis of anticancer agent esters with rat liver cancer cells Anr4; conditions: rat, anr4 cells, pH 7.5
Description: as §1, §2

[23] = Stereoselective hydrolysis of anticancer agent esters with rat sarcoma cells XC; conditions: rat, xc cells, pH 7.5
Description: as §1, §2

CC(C(=O)Oc1ccc(N(CCCl)CCCl)cc1)c1ccccc1 (racemic) [Ia, (±)-4-bis(2-chloroethyl)aminophenyl 2-phenylpropionate]
metabolised at 12 h [1]: 2.4% | enantiomer excess of the carboxylic acid produced by the hydrolysis [2]: 9.1 % e.e. | metabolised at 12 h [3]: 3% | enantiomer excess of the carboxylic acid produced by the hydrolysis [4]: 9.4 % e.e. | enantiomer excess of the carboxylic acid produced by the hydrolysis [5]: 42.8 % e.e. | enantiomer excess of the carboxylic acid produced by the hydrolysis [6]: 68.9 % e.e. | enantiomer excess of the carboxylic acid produced by the hydrolysis [7]: 15.7 % e.e. | enantiomer excess of the carboxylic acid produced by the hydrolysis [8]: 87.1 % e.e. | metabolised at 12 h [9]: 6% | enantiomer excess of the carboxylic acid produced by the hydrolysis [10]: 1.0 % e.e. | enantiomer excess of the carboxylic acid produced by the hydrolysis [11]: 18.6 % e.e. | metabolised at 12 h [12]: 5.8% | enantiomer excess of the carboxylic acid produced by the hydrolysis [13]: 1.8 % e.e. | metabolised at 12 h [14]: 5.2% | metabolised at 12 h [15]: 6.3% | metabolised at 12 h [16]: 10.2% | enantiomer excess of the carboxylic acid produced by the hydrolysis [17]: 68.9 % e.e. | enantiomer excess of the carboxylic acid produced by the hydrolysis [18]: 72.3 % e.e. | metabolised at 12 h [19]: 20.9%

COC(C(=O)Oc1ccc(N(CCCl)CCCl)cc1)c1ccccc1 (racemic) [Ib, (±)-4-bis(2-chloroethyl)aminophenyl 2-methoxy-2-phenylacetate]
enantiomer excess of the carboxylic acid produced by the hydrolysis [4]: 20.4 % e.e. | enantiomer excess of the carboxylic acid produced by the hydrolysis [5]: 26.8 % e.e. | enantiomer excess of the carboxylic acid produced by the hydrolysis [6]: 91.3 % e.e. | enantiomer excess of the carboxylic acid produced by the hydrolysis [7]: 33.2 % e.e. | enantiomer excess of the carboxylic acid produced by the hydrolysis [10]: 8.4 % e.e. | enantiomer excess of the carboxylic acid produced by the hydrolysis [11]: 69.9 % e.e. | metabolised at 12 h [12]: 55.2% | enantiomer excess of the carboxylic acid produced by the hydrolysis [13]: 46.0 % e.e. | metabolised at 12 h [15]: 23.9% | metabolised at 12 h [16]: 55.2% | metabolised at 12 h [19]: 14%

O=C(Oc1ccc(N(CCCl)CCCl)cc1)[C@@H](Cc1ccccc1)NC(=O)C(F)(F)F [(R)-(+)-Ic, 4-bis(2-chloroethyl)aminophenyl 2-trifluoroacetamido-3-phenylpropionate]
multiplication of Anr4 cells suppressed to % of the control ([20]; 10 μM): 14% | suppression of multiplication of Anr4 cells, comparison of enantiomers [20]: stronger cell multiplication-suppressing effect than (S)-(-)-Ic

CO[C@@H](C(=O)Oc1ccc(N(CCCl)CCCl)cc1)c1ccccc1 [(R)-(-)-Ib, 4-bis(2-chloroethyl)aminophenyl 2-methoxy-2-phenylacetate]
number of cells, % for the value of the control ([20]; 0.01 μM): 95% | number of cells, % for the value of the control ([20]; 0.1 μM): 55% | number of cells, % for the value of the control ([20]; 1 μM): 16% | number of cells, % for the value of the control ([20]; 10 μM): 12% | number of cells, % for the value of the control ([20]; 100 μM): 9% | suppression of multiplication of Anr4 cells, comparison of enantiomers [20]: suppressed the multiplication of Anr4 cells more strongly than dextro-rotatory (S)-(+)-Ib did

CO[C@H](C(=O)Oc1ccc(N(CCCl)CCCl)cc1)c1ccccc1 [(S)-(+)-Ib, 4-bis(2-chloroethyl)aminophenyl 2-methoxy-2-phenylacetate]
number of cells, % for the value of the control ([20]; 0.01 μM): 95% | number of cells, % for the value of the control ([20]; 0.1 μM): 83% | number of cells, % for the value of the control ([20]; 1 μM): 30% | number of cells, % for the value of the control ([20]; 10 μM): 18% | number of cells, % for the value of the control ([20]; 100 μM): 9%

O=C(Oc1ccc(N(CCCl)CCCl)cc1)[C@H](Cc1ccccc1)NC(=O)C(F)(F)F [(S)-(-)-Ic, 4-bis(2-chloroethyl)aminophenyl 2-trifluoroacetamido-3-phenylpropionate]
multiplication of Anr4 cells suppressed to % of the control ([20]; 10 μM): 25%

CC(C(=O)OC[C@H]1O[C@@H](n2cc(F)c(=O)[nH]c2=O)[C@H](O)[C@@H]1O)c1ccccc1 (stereo partly drawn) [IIa, 5'-(RS)-(2-phenylpropionyl)-5-fluorouridine]
enantiomer excess of the carboxylic acid produced by the hydrolysis [2]: 12.5 % e.e. | metabolised at 12 h ([2]; human, whole blood): 5.3% | enantiomer excess of the carboxylic acid produced by the hydrolysis [4]: 53.7 % e.e. | metabolised at 12 h [4]: 6.3% | enantiomer excess of the carboxylic acid produced by the hydrolysis [5]: 91.3 % e.e. | metabolised at 12 h [21]: 25.2% | enantiomer excess of the carboxylic acid produced by the hydrolysis [6]: 81.6 % e.e. | metabolised at 12 h [22]: 26.3% | enantiomer excess of the carboxylic acid produced by the hydrolysis [7]: 85.6 % e.e. | enantiomer excess of the carboxylic acid produced by the hydrolysis [10]: 36.9 % e.e. | enantiomer excess of the carboxylic acid produced by the hydrolysis [11]: 82.1 % e.e. | metabolised at 12 h [23]: 16.8% | enantiomer excess of the carboxylic acid produced by the hydrolysis [13]: 61.7 % e.e. | enantiomer excess of the carboxylic acid produced by the hydrolysis [18]: 38.2 % e.e.

COC(C(=O)OC[C@H]1O[C@@H](n2cc(F)c(=O)[nH]c2=O)[C@H](O)[C@@H]1O)c1ccccc1 (stereo partly drawn) [IIb, 5'-(RS)-(2-methoxy-2-phenylacetyl)-5-fluorouridine]
enantiomer excess of the carboxylic acid produced by the hydrolysis [4]: 55.0 % e.e. | metabolised at 12 h [4]: 14.8% | enantiomer excess of the carboxylic acid produced by the hydrolysis [5]: 84.1 % e.e. | metabolised at 12 h [21]: 27.7% | enantiomer excess of the carboxylic acid produced by the hydrolysis [6]: 81.1 % e.e. | metabolised at 12 h [22]: 23.7% | enantiomer excess of the carboxylic acid produced by the hydrolysis [7]: 6.0 % e.e. | enantiomer excess of the carboxylic acid produced by the hydrolysis [10]: 42.5 % e.e. | enantiomer excess of the carboxylic acid produced by the hydrolysis [11]: 81.5 % e.e. | metabolised at 12 h [23]: 23% | enantiomer excess of the carboxylic acid produced by the hydrolysis [13]: 18.5 % e.e.
